Laboratory results: patent US6087336A, “Peptide derivatives useful in treating autoimmune diseases” (Zeneca Limited, priority 1996, dated 2000)

Tests used:
HLA-DR1 = molecular target: T1, HLA-DR1 (Homo sapiens, UniProt P01903+P01911, A100R/D57E/F55L/F60I/F76Y/I96L/L162R/M171V/P40L/Q125E/R42F/V115G/Y59C); assay: Variant to Test A: peptide selectivity binding assay, HLA-DR1
T1 construct: Human HLA-DR antigens were purified from various cell lines; endogenous in cells; host or cells: Hom 2 cell line
Description: (§1) As a variant to test A, the ability of a peptide of the invention to bind to one or more HLA-DR molecules was assessed as follows:
(§2) (i) Purification of HLA-DR Types from Cell Lines
(§3) The method used was a modification of that described by Gorga et al, 1987, J.Biol.Chem. 262, 16087-16094. Human HLA-DR antigens were purified from various cell lines by immunoaffinity chromatography. […] Protein content was determined by a Biorad protein assay and purity by SDS-PAGE electrophoresis. […]
(§4) 200 nM biotin-FHA307-320 in phosphate buffered saline (PBS) was incubated with either purified HLA-DR1, DR2, DR4Dw4, DR4Dw13 or DR4Dw14, (2-20μg/ml) in V-well microtitre plates (Nunc) with or without inhibitor peptides in assay buffer (PBS, 0.01% NP40 (Sigma.)) For DR3 inhibition, 400 nM Biotin-Ahx-(D)Ala-Ala-Ala-Che-lle-Ala-Ala-Ala-Thr-Leu-Lys-Ala-Ala-(D)Ala-OH was incubated with purified DR3 (20 μg/ml.), and incubated as above. After 48 hours, the incubates were treated, and absorbance readings taken as described in Test A. The inhibitory activity of peptides, expressed as IC50 values, was calculated using Microcal Origin software on a PC.

HLA-DR2 = assay: Variant to Test A: peptide selectivity binding assay, HLA-DR2; design: species or system Human
Description: as §1, §2, §3, §4

[1] = type: physicochemical; conditions: for aqueous stability at pH3: pH 3
Description: A typical procedure for measuring the stability of a peptide derivative of the present invention is as follows, in which, to minimize microbial contamination and degradation, all equipment that is used to prepare peptide solutions is sterilized in an autoclave and all material transfers carried out in a Class II laminar flow cabinet. Approximately 20 ml of Mcllvaine's citric acid-phosphate buffer solution at pH 3 or 7.6 containing 0.02% sodium azide is filtered into a 50 mL bottle using a sterile 0.22 μm filter unit and a 20 ml syringe. Approximately 1.2 mg of peptide is accurately weighed in a capped vial. Using a sterile pipette tip, sufficient buffer solution is added to the peptide in the vial to give a peptide concentration of 0.1 mg/ml. The vial is capped and shaken to dissolve the peptide. Using a sterile pipette tip, aliquots of approximately 1 ml of the peptide solution are transferred to 10 HPLC vials, which are then capped. 5 vials are stored at -18 and 37° C. The area of the peptide peak for the solution is determined by HPLC using appropriate standards initially and after storage at -18 and 37° C. for 1, 2, 3 and 4 weeks, using a fresh vial at each time point with duplicate sample injections. The percentage of peptide remaining after storage at 37° C. at each time point is determined from the ratio of the area of the peptide peak at each time point to the initial area. Preferred peptide derivatives of the present invention have greater than 90%, and preferably greater than 95%, of peptide remaining after storage at 37° C. at both pH 3 and 7.6.

[2] = type: physicochemical
Description: Typical procedures for measuring the level of degradation of a peptide of the present invention are as follows:
Prenaration of extruded polymer depot formulation of peptide
About 20 mg of peptide is accurately weighed and sufficient polymer (50/50% molar poly(D,L-lactic acid/glycolic acid) copolymer of approximate weight average molecular weight 20kD and approximate polydispersity of 1.7 as determined by size exclusion chromatography relative to polystyrene standards) added to produce an approximate 20% w/w mixture. This is dissolved in […] glacial acetic acid to produce an approximate 10% w/v solution. The solution is freeze dried and the resulting freeze dried product is stored under vacii, prior to use.
About 100 mg of freeze dried material is loaded into the barrel of a small laboratory extruder and the plunger pushed down to consolidate the sample. The extruder is heated to between 90 and 95° C. and held at this temperature for 10 minutes before the freeze dried material is extruded under presure to give a cylindrical extrudate of approximately 1 mm in diameter.
Analysis of peptide content of extruded polymer depot formulation of peptide
Two approximate 5 mm lengths of extruded polymer depot containing peptide are accurately weogjed amd eacj dosspved 1 ml of anhydride-free glacial acetic acid in separate 25 ml bolumertic flasks. After about 1.5 hours the volume of each is made up to 25 ml with distilled water, causing the polymer to precipitate. The solids are filtered off using a 0.5 μm Millex PTFE filter and the solutions, A, collected. […]
Each standard is filtered through a 5 μm Millex PTFE filter and an aliquot of filtrate, together with aliquots of the solutions A, analysed by HPLC using duplicate sample injections. The peptide content of the extruded polymer depot formulation of peptide is calculated from the concentration of peptide in solutions A, which is determined by comparing the area of the peptide peak in solutions A with the area of the peptide peak from the standard solutions.

| Substance | binding to HLA-DR1 (HLA-DR1) | binding to HLA-DR2 (HLA-DR2) | aqueous stability at pH3 [1] | aqueous stability at pH 7.6 [1] | loss due to degradation on extrusion [2] |
| --- | --- | --- | --- | --- | --- |
| Phv-Ala-Arg-Ala-IIb-Ala-Arg-Ala-Papa-NH2 [Example 23] | bind significantly | bind significantly | good aqueous stability | good aqueous stability | minimal loss due to degradation on extrusion |
| Phv-Arg-Ala-Ala-Ala-Val-IIb-Ala-Pip-NH2 [Example 5] | – | – | good aqueous stability | good aqueous stability | minimal loss due to degradation on extrusion |
| Phv-Gap(Me)4 -Ala-Ala-Ala-Thr-IIb-Ala-Papa-NH2 [Example 16] | – | – | good aqueous stability | good aqueous stability | minimal loss due to degradation on extrusion |
